The assay concerns isoniazid-, rifampin-, and fluoroquinolone-resistant M. tuberculosis. As to the kind of experiment: microbe, parasite or virus in culture. The following applies: for MIC: Mycobacterium tuberculosis; for activity against resistant strains: isoniazid-, rifampin-, and fluoroquinolone-resistant M. tuberculosis. The format is cell-based.

Values after ≈ are worked out from the molar mass of the structure shown.

`CC12CCCC(C(=O)Nc3nc4cc(Cl)cc(Cl)c4s3)(CCC1)C2` [Example 2, N-(5,7-dichloro-1,3-benzothiazol-2-yl)-5-methylbicyclo[3.3.1]nonane-1-carboxamide]: the MIC lay within 0.03 to 4 µg/mL (≈ 0.0783 to 10.4 µM) and the “activity against resistant strains” value is reported as “active”.

For the compound `CC12CCCC(C(=O)Nc3nc4ccc(OC(F)(F)F)cc4s3)(CCC1)C2` [Example 5, 5-methyl-N-[6-(trifluoromethoxy)-1,3-benzothiazol-2-yl]bicyclo[3.3.1]nonane-1-carboxamide], the MIC lay within 0.03 to 4 µg/mL (≈ 0.0753 to 10 µM) and the “activity against resistant strains” value is on record as “active”.

On to `CC12CC3CC(C)(C1)CC(C(=O)Nc1nc4ccc(OC(F)(F)F)cc4s1)(C3)C2` [Example 45, 3,5-dimethyl-N-[6-(trifluoromethoxy)-1,3-benzothiazol-2-yl]adamantane-1-carboxamide], for which the MIC was in the range of 0.03 to 4 µg/mL (≈ 0.0707 to 9.42 µM) and the “activity against resistant strains” value is on record as “active”.

As to `CC1CC(C(=O)Nc2nc3ccc(OC(F)(F)F)cc3s2)CC(C)(C)C1` (stereo not shown) [Example 46, 3,3,5-trimethyl-N-[6-(trifluoromethoxy)-1,3-benzothiazol-2-yl]cyclohexane-1-carboxamide], the MIC was in the range of 0.03 to 4 µg/mL (≈ 0.0776 to 10.4 µM) and the “activity against resistant strains” value is reported as “active”.

Regarding `CC1CC(C(=O)Nc2nc3c(F)cc(F)cc3s2)CC(C)(C)C1` (stereo not shown) [Example 80, N-(4,6-difluoro-1,3-benzothiazol-2-yl)-3,3,5-trimethylcyclohexane-1-carboxamide], the MIC was in the range of 0.03 to 4 µg/mL (≈ 0.0886 to 11.8 µM) and the “activity against resistant strains” value is listed as “active”.
